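Briefly, cells in 96-well plates were exposed to five compound concentrations for 48 h, and endpoints were estimated by linear interpolation. GI50 = concentration required for 50% inhibition of growth.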 Activity calls are given as the source filed them. Rule as the data show it: active = GI50 up to about 1.1 µM and inactive = higher.
Tests used:
Test in all cases: NCI tumour cell line growth inhibition, 48 h
SK-MEL-5 = system: SK-MEL-5
SK-MEL-28 = system: SK-MEL-28
SF-539 = system: SF-539
HCT-116 = system: HCT-116
UACC-62 = system: UACC-62
RXF 393 = system: RXF 393
SR = system: SR
NCI-H23 = system: NCI-H23
K562 = system: K562
SF-268 = system: SF-268
ACHN = system: ACHN
KM12 = system: KM12
U-251 = system: U-251
A549 = system: A549
OVCAR-5 = system: OVCAR-5
UO-31 = system: UO-31
SNB-19 = system: SNB-19
M14 = system: M14
MOLT-4 = system: MOLT-4
CCRF-CEM = system: CCRF-CEM
LOX IMVI = system: LOX IMVI
LXFL 529 = system: LXFL 529
EKVX = system: EKVX
KM-20L2 = system: KM-20L2
DLD-1 = system: DLD-1
SK-OV-3 = system: SK-OV-3
SNB-78 = system: SNB-78
SNB-75 = system: SNB-75
OVCAR-3 = system: OVCAR-3
DMS-273 = system: DMS-273
SW-620 = system: SW-620
HL-60 = system: HL-60
A498 = system: A498
HCT-15 = system: HCT-15
UACC-257 = system: UACC-257
HOP-18 = system: HOP-18
SN12C = system: SN12C
SF-295 = system: SF-295
786-0 = system: 786-0
NCI-H460 = system: NCI-H460
HT-29 = system: HT-29
DMS-114 = system: DMS-114
TK-10 = system: TK-10
OVCAR-4 = system: OVCAR-4
RPMI-8226 = system: RPMI-8226
SK-MEL-2 = system: SK-MEL-2
Malme-3M = system: Malme-3M
OVCAR-8 = system: OVCAR-8
NCI-H522 = system: NCI-H522
IGROV-1 = system: IGROV-1
COLO 205 = system: COLO 205
HOP-62 = system: HOP-62
CAKI-1 = system: CAKI-1
M19-MEL = system: M19-MEL
NCI-H226 = system: NCI-H226
HOP-92 = system: HOP-92

CN(C)CC/C(=N\Nc1ccc([N+](=O)[O-])cc1)c1ccccc1
GI50 (SK-MEL-5): 14.5 µM (inactive)
GI50 (SK-MEL-28): 12.7 µM (inactive)
GI50 (SF-539): 7.28 µM (inactive)
GI50 (HCT-116): 11.7 µM (inactive)
GI50 (UACC-62): 12.9 µM (inactive)
GI50 (RXF 393): 4.5 µM (inactive)
GI50 (SR): 3.5 µM (inactive)
GI50 (NCI-H23): 13.3 µM (inactive)
GI50 (K562): 3.48 µM (inactive)
GI50 (SF-268): 7.94 µM (inactive)
GI50 (ACHN): 2.61 µM (inactive)
GI50 (KM12): 9.31 µM (inactive)
GI50 (U-251): 12.4 µM (inactive)
GI50 (A549): 13.4 µM (inactive)
GI50 (OVCAR-5): 15 µM (inactive)
GI50 (UO-31): 2.1 µM (inactive)
GI50 (SNB-19): 15 µM (inactive)
GI50 (M14): 13.9 µM (inactive)
GI50 (MOLT-4): 7.43 µM (inactive)
GI50 (CCRF-CEM): 7.23 µM (inactive)
GI50 (LOX IMVI): 5.25 µM (inactive)
GI50 (LXFL 529): 5.83 µM (inactive)
GI50 (EKVX): 14.3 µM (inactive)
GI50 (KM-20L2): 4.33 µM (inactive)
GI50 (DLD-1): 13.3 µM (inactive)
GI50 (SK-OV-3): 16.1 µM (inactive)
GI50 (SNB-78): 4.4 µM (inactive)
GI50 (SNB-75): 4.5 µM (inactive)
GI50 (OVCAR-3): 16.3 µM (inactive)
GI50 (DMS-273): 10.3 µM (inactive)
GI50 (SW-620): 13.4 µM (inactive)
GI50 (HL-60): 3.61 µM (inactive)
GI50 (A498): 13.2 µM (inactive)
GI50 (HCT-15): 13.6 µM
GI50 (UACC-257): 16.8 µM (inactive)
GI50 (HOP-18): 7.62 µM (inactive)
GI50 (SN12C): 10.9 µM (inactive)
GI50 (SF-295): 11.5 µM (inactive)
GI50 (786-0): 12.6 µM (inactive)
GI50 (NCI-H460): 9.48 µM (inactive)
GI50 (HT-29): 9.23 µM (inactive)
GI50 (DMS-114): 5.14 µM (inactive)
GI50 (TK-10): 4.14 µM (inactive)
GI50 (OVCAR-4): 18.3 µM (inactive)
GI50 (RPMI-8226): 11 µM (inactive)
GI50 (SK-MEL-2): 12.9 µM (inactive)
GI50 (Malme-3M): 19.4 µM (inactive)
GI50 (OVCAR-8): 14 µM (inactive)
GI50 (NCI-H522): 13.9 µM (inactive)
GI50 (IGROV-1): 11 µM (inactive)
GI50 (COLO 205): 14.9 µM (inactive)
GI50 (HOP-62): 14.2 µM (inactive)

O=c1cc2n(c(=O)[nH]1)C1OC(C(O)C1O)[C@@H]2CCO (stereo partly specified)
GI50 (SK-MEL-5): > 100 µM (inactive)
GI50 (SK-MEL-28): > 100 µM (inactive)
GI50 (SF-539): > 100 µM (inactive)
GI50 (UACC-62): > 100 µM (inactive)
GI50 (RXF 393): > 100 µM (inactive)
GI50 (SR): > 100 µM (inactive)
GI50 (CAKI-1): > 100 µM (inactive)
GI50 (NCI-H23): > 100 µM (inactive)
GI50 (K562): > 100 µM (inactive)
GI50 (SF-268): > 100 µM (inactive)
GI50 (ACHN): > 100 µM (inactive)
GI50 (KM12): > 100 µM (inactive)
GI50 (M19-MEL): > 100 µM (inactive)
GI50 (U-251): > 100 µM (inactive)
GI50 (A549): > 100 µM (inactive)
GI50 (OVCAR-5): > 100 µM (inactive)
GI50 (UO-31): > 100 µM (inactive)
GI50 (SNB-19): > 100 µM (inactive)
GI50 (M14): > 100 µM (inactive)
GI50 (MOLT-4): > 100 µM (inactive)
GI50 (CCRF-CEM): > 100 µM (inactive)
GI50 (LOX IMVI): > 100 µM (inactive)
GI50 (LXFL 529): > 100 µM (inactive)
GI50 (EKVX): > 100 µM (inactive)
GI50 (KM-20L2): > 100 µM (inactive)
GI50 (DLD-1): > 100 µM (inactive)
GI50 (SK-OV-3): > 100 µM (inactive)
GI50 (SNB-78): > 100 µM (inactive)
GI50 (DMS-273): > 100 µM (inactive)
GI50 (SW-620): > 100 µM (inactive)
GI50 (HL-60): > 100 µM (inactive)
GI50 (A498): > 100 µM (inactive)
GI50 (UACC-257): > 100 µM (inactive)
GI50 (SN12C): > 100 µM (inactive)
GI50 (SF-295): > 100 µM (inactive)
GI50 (786-0): > 100 µM (inactive)
GI50 (NCI-H460): > 100 µM (inactive)
GI50 (HT-29): > 100 µM (inactive)
GI50 (DMS-114): > 100 µM (inactive)
GI50 (TK-10): > 100 µM (inactive)
GI50 (OVCAR-4): > 100 µM (inactive)
GI50 (SK-MEL-2): > 100 µM (inactive)
GI50 (NCI-H226): > 10 µM (inactive)
GI50 (Malme-3M): > 100 µM (inactive)
GI50 (OVCAR-8): > 100 µM (inactive)
GI50 (NCI-H522): > 100 µM (inactive)
GI50 (HOP-92): > 100 µM (inactive)
GI50 (IGROV-1): > 100 µM (inactive)
GI50 (HOP-62): > 100 µM (inactive)
